Test results taken from patent publication US7468384B2, “Microbicidal composition” (Rohm and Haas Company, priority 2004, dated 2008).

Tests used:
Assay type in all cases: cell-based
[1] = tested on: Candida albicans (C. albicans—ATCC 10231); experiment: Synergy test, microtiter plate high resolution MIC assay, yeast; details: C. albicans 10231, PDB, 24 hours
From the text: (§1) One measure of synergism is the industrially accepted method described by Kull, F. C.; Eisman, P. C.; Sylwestrowicz, H. D. and Mayer, R. L., in Applied Microbiology 9:538-541 (1961), using the ratio determined by the formula: Qa/QA+Qb/QB=Synergy Index (“SI”) wherein: • QA=concentration of compound A (first component) in ppm, acting alone, which produced an end point (MIC of Compound A). • Qa=concentration of compound A in ppm, in the mixture, which produced an end point. • QB=concentration of compound B (second component) in ppm, acting alone, which produced an end point (MIC of Compound B). • Qb=concentration of compound B in ppm, in the mixture, which produced an end point.
(§2) When the sum of Qa/QA and Qb/QB is greater than one, antagonism is indicated. […] The lower the SI, the greater the synergy shown by that particular mixture. The minimum inhibitory concentration (MIC) of a microbicide is the lowest concentration tested under a specific set of conditions that prevents the growth of added microorganisms.
(§3) Synergy tests were conducted using standard microtiter plate assays with media designed for optimal growth of the test microorganism. Soybean Casein Digest Broth (Tryptic Soy Broth, TSB medium) or minimal salt medium supplemented with 0.2% glucose and 0.1% yeast extract (M9GY medium) was used for testing bacteria; Potato Dextrose Broth (PDB medium) was used for testing yeast and mold. In this method, a wide range of combinations of microbicides was tested by conducting high resolution MIC assays in the presence of various concentrations of MI. High resolution MICs were determined by adding varying amounts of microbicide to one column of a microtitre plate and doing subsequent ten-fold dilutions using an automated liquid handling system to obtain a series of endpoints ranging from 2 ppm to 10,000 ppm active ingredient.
(§4) For MI combinations, the synergy of the combinations of the present invention was determined against two bacteria, Escherichia coli (E. coli—ATCC #8739) or Pseudomonas aeruginosa (P. aeruginosa—ATCC #15442), a yeast, Candida albicans (C. albicans—ATCC 10231), and a mold, Aspergillus niger (A. niger—ATCC 16404). The bacteria were used at a concentration of about 5×10^6 bacteria per mL and the yeast and mold at 5×10^5 fungi per mL. These microorganisms are representative of natural contaminants in many consumer and industrial applications. […] (bacteria).
(§5) For BIT combinations, the synergy of the combinations of the present invention was determined against a bacterium, Pseudomonas aeruginosa (P. aeruginosa—ATCC #15442), a yeast, Candida albicans (C. albicans—ATCC 10231), and a mold, Aspergillus niger (A. niger—ATCC 16404). The bacteria were used at a concentration of about 5×10^6 bacteria per mL and the yeast and mold at 5×10^5 fungi per mL. These microorganisms are representative of natural contaminants in many consumer and industrial applications. […] (yeast and mold) or 30° C. (bacteria).

[2] = tested on: Aspergillus niger (A. niger—ATCC 16404); experiment: Synergy test, microtiter plate high resolution MIC assay, mold; set-up: key to SI (calculated synergy index) / SI (synergy index): SI = Qa/QA + Qb/QB (mixture vs. alone end-point concentrations); details: A. niger 16404, PDB; for Qb (second component at end point, MIC): alone where Qa = 0
From the text: as §1, §2, §3, §4, §5

[3] = tested on: Pseudomonas aeruginosa (P. aeruginosa—ATCC #15442); experiment: Synergy test, microtiter plate high resolution MIC assay, bacterium; set-up: key to SI (calculated synergy index) / SI (synergy index): SI = Qa/QA + Qb/QB (mixture vs. alone end-point concentrations); details: for Qb (second component at end point, MIC): alone where Qa = 0
From the text: as §1, §2, §3, §4, §5

S. aureus 6538 = experiment: as above; details: S. aureus 6538, TSB
From the text: as §1, §2, §3

[4] = tested on: Escherichia coli (E. coli—ATCC #8739); experiment: as above; details: E. coli 8739, M9GY, 24 hours
From the text: as §1, §2
as §3, with “In this method, a wide range of combinations of microbicides was tested by conducting high resolution MIC assays in the presence of various concentrations of MI.” left out
as §4

Cocamidopropyl PG-dimonium chloride phosphate
SI (calculated synergy index) ([1]; Table 6): 1.00
Qb: end-point activity (MIC) of second component in the mixture (alone, QB, where Qa = 0) ([1]; Table 6, B = Cocamidopropyl PG-dimonium chloride phosphate): 100 ppm
SI (calculated synergy index) ([2]; Table 6, 4 days): 1.00
Qb: end-point activity (MIC) of second component in the mixture (alone, QB, where Qa = 0) ([2]; Table 6, 4 days, B = Cocamidopropyl PG-dimonium chloride phosphate): 1000 ppm
SI (synergy index) ([2]; Table 22, 1 week): 1.00
Qb (second component at end point, MIC) ([2]; Table 22, Cocamidopropyl PG-dimonium chloride phosphate with BIT, 1 week): 3000 ppm
SI (calculated synergy index) ([3]; Table 6, P. aeruginosa 15442, M9GY, 72 hours): 1.00
Qb: end-point activity (MIC) of second component in the mixture (alone, QB, where Qa = 0) ([3]; Table 6, P. aeruginosa 15442, M9GY, 72 hours, B = Cocamidopropyl PG-dimonium chloride phosphate): 30 ppm
SI (calculated synergy index) ([3]; Table 6, P. aeruginosa 15442, TSB, 48 hours): 1.00
Qb: end-point activity (MIC) of second component in the mixture (alone, QB, where Qa = 0) ([3]; Table 6, P. aeruginosa 15442, TSB, 48 hours, B = Cocamidopropyl PG-dimonium chloride phosphate): 1000 ppm
Qb (second component at end point, MIC) ([3]; Table 22, Cocamidopropyl PG-dimonium chloride phosphate with BIT, P. aeruginosa 15442, M9GY, 72 hours): 40 ppm
SI (synergy index) ([3]; Table 22, P. aeruginosa 15442, M9GY, 72 hours): 1.00
SI (calculated synergy index) (S. aureus 6538; Table 6, 24 hours): 1.00
Qb: end-point activity (MIC) of second component in the mixture (alone, QB, where Qa = 0) (S. aureus 6538; Table 6, 24 hours, B = Cocamidopropyl PG-dimonium chloride phosphate): 30 ppm

OCC(O)COc1ccc(Cl)cc1 (centres unmarked) [Chlorphenesin]
MIC of component acting alone (QA / QB) [1]: 2000 ppm
MIC of component acting alone (QA / QB) [4]: 2000 ppm
MIC of component acting alone (QA / QB) ([2]; 4 days): 2000 ppm
Qb ([2]; chlorphenesin concentration giving end point (MIC), alone or mixed with BIT, 1 week): 2000 ppm
SI ([2]; synergy index BIT + chlorphenesin, 1 week): 1.00
MIC of component acting alone (QA / QB) ([3]; P. aeruginosa 15442, M9GY, 48 hours): 4000 ppm
MIC of component acting alone (QA / QB) ([3]; P. aeruginosa 15442, TSB, 48 hours): 8000 ppm
Qb ([3]; chlorphenesin concentration giving end point (MIC), alone or mixed with BIT, P. aeruginosa 15442, M9GY, 72 hours): 8000 ppm
SI ([3]; synergy index BIT + chlorphenesin, P. aeruginosa 15442, M9GY, 72 hours): 1.00
MIC of component acting alone (QA / QB) (S. aureus 6538; 48 hours): 5000 ppm

Linoleamidopropyl PG-dimonium chloride phosphate
SI (calculated synergy index) ([1]; Table 5): 1.00
Qb: end-point activity (MIC) of second component in the mixture (alone, QB, where Qa = 0) ([1]; Table 5, B = Linoleamidopropyl PG-dimonium chloride phosphate): 8000 ppm
SI (calculated synergy index) ([2]; Table 5, 7 days): 1.00
Qb: end-point activity (MIC) of second component in the mixture (alone, QB, where Qa = 0) ([2]; Table 5, 7 days, B = Linoleamidopropyl PG-dimonium chloride phosphate): 6000 ppm
SI (synergy index) ([2]; Table 21, 4 days): 1.00
Qb (second component at end point, MIC) ([2]; Table 21, Linoleamidopropyl PG-dimonium chloride phosphate with BIT, 4 days): 3000 ppm
SI (calculated synergy index) ([3]; Table 5, P. aeruginosa 15442, M9GY, 48 hours): 1.00
Qb: end-point activity (MIC) of second component in the mixture (alone, QB, where Qa = 0) ([3]; Table 5, P. aeruginosa 15442, M9GY, 48 hours, B = Linoleamidopropyl PG-dimonium chloride phosphate): 10000 ppm
SI (calculated synergy index) ([3]; Table 5, P. aeruginosa 15442, TSB, 48 hours): 1.00
Qb: end-point activity (MIC) of second component in the mixture (alone, QB, where Qa = 0) ([3]; Table 5, P. aeruginosa 15442, TSB, 48 hours, B = Linoleamidopropyl PG-dimonium chloride phosphate): 10000 ppm
Qb (second component at end point, MIC) ([3]; Table 21, Linoleamidopropyl PG-dimonium chloride phosphate with BIT, P. aeruginosa 15442, M9GY, 48 hours): 10000 ppm
SI (synergy index) ([3]; Table 21, P. aeruginosa 15442, M9GY, 48 hours): 1.00
SI (calculated synergy index) (S. aureus 6538; Table 5, 48 hours): 1.00
Qb: end-point activity (MIC) of second component in the mixture (alone, QB, where Qa = 0) (S. aureus 6538; Table 5, 48 hours, B = Linoleamidopropyl PG-dimonium chloride phosphate): 40 ppm
